Laboratory results published in patent publication US7294687B2, “Parenteral formulations of a peptide for the treatment of systemic lupus erythematosus” (TEVA Pharmaceutical Industries, Ltd., priority 2003, dated 2007).
Like-named read-outs stand apart in the source and are kept apart here.

Columns and labels:
[1] = system: IFN-γ secretion by LN cells; test: IFN-γ secretion by cultured LN cells of immunized and treated mice, ELISA; type: in vivo, BALB/c mice
Method: A group of 20 mice were immunized with 50 μg/mouse of Compound 1 RS. The immunized mice were allocated to five treatment groups as follows: placebo, 25, 50, 100 and 200 μg/mouse of Compound 1 DP (subcutaneous administration). Ten days post immunization and treatment, LN was extracted and single cell suspension was prepared. The in-vitro secretion of IFN-γ and TGF-β by the cultured cells in response to activation with several concentrations of Compound 1 RS was then measured. [table] [table] […] Mice were sacrificed by cervical dislocation. LN were extracted from the hind legs and were transferred to a sterile petri dish containing about 5 mL RPMI. The cells were extracted by gentle squeezing of the tissue against a 200 micrometer mesh stainless steel net. The cells were collected and centrifuged at 300 G for 10 minutes at RT. Single cell suspensions were prepared from pooled LN of each experimental group. […] Secretion of IFN-γ and TGF-β, as indication of cellular response, were determined by ELISA of culture media (48 hrs for IFN-γ and 72 hrs for TGF-β). [table]

[2] = system: peripheral blood lymphocytes (PBL) of SLE patients; conditions: cited from earlier work
[3] = system: SLE-prone (NZBxNZW)F1 female mouse; test: Intensity of immune complex deposits (ICD) in kidneys; type: in vivo, (NZBxNZW)F1 mice
Method: The same batch of drug substance was used in this study and in the first Phase I clinical trial with Compound 1. The mice were followed for anti-dsDNA antibodies and for proteinuria. When the mice were sacrificed, the intensity of ICD was determined in kidneys.

[4] = system: Balb/c mice and SLE-prone (NZBxNZW)F1 mice; conditions: cited from earlier work
SLE subjects [5] = test: Phase Ib multiple dose clinical study, tolerability and safety; type: in vivo, human; conditions: multiple subcutaneous doses of 0.5, 1 or 2.5 mg in 120 mg Captisol®; 12 sc injections
Method: This study is being performed in order to evaluate the safety and tolerability of repeated Compound 1 sc administration to SLE subjects. […] The investigational product is administered every other day (excluding weekends) for a total of 12 sc injections, i.e. 3 doses a week for 4 weeks. Subjects are monitored on planned visits scheduled at 2, 4, 8 and 12 weeks after start of dosing. Safety and tolerability are evaluated using tests similar to those described in the Phase Ia Clinical Study above.

SLE subjects [6] = test: Phase Ia single dose clinical study, tolerability and safety; type: in vivo, human
Method: The following safety parameters were assessed at Screening, during the hospitalization and at follow-up visits including Termination visit: vital signs (systolic blood pressure, diastolic blood pressure, pulse, oxygen saturation, temperature and weight), 12-lead ECG, change in physical examination and clinical routine laboratory safety tests. Adverse events were recorded at the Dosing Day and at each visit thereafter.

[7] = Solubility of Compound 1 peptide, formulation development; type: physicochemical
Source text: In order to develop a formulation for sub-cutaneous injection, it is also desirable that the pH be in the range of 4 to 9 and that the solution be iso-osmotic.
The pH was adjusted if needed.

[8] = single s.c. dose 0.5, 1 or 2.5 mg in Captisol®
[9] = single s.c. dose 0.5, 1 or 2.5 mg in Captisol®, vs placebo

H-GYYWSWIRQPPGKGEEWIG-OH [Compound 1]
Final cytokine (IFN-γ secretion) ([1]; Compound 1 DP 100 μg/M s.c., 5 million cells/well, activation Compound 1 RS 12.5 μg/ml): 257.1 pg/mL | Final cytokine (IFN-γ secretion) ([1]; Compound 1 DP 100 μg/M s.c., 5 million cells/well, activation Compound 1 RS 50 μg/ml): 739.7 pg/mL | Final cytokine (IFN-γ secretion) ([1]; Compound 1 DP 100 μg/M s.c., 5 million cells/well, activation Compound 1 RS 100 μg/ml): 995.5 pg/mL | Final cytokine (IFN-γ secretion) ([1]; Compound 1 DP 100 μg/M s.c., 5 million cells/well, activation Compound 1 RS 25 μ/ml): 421.7 pg/mL | Final cytokine (IFN-γ secretion) ([1]; Compound 1 DP 100 μg/M s.c., 5 million cells/well, activation Con A): 10126.8 pg/mL | Final cytokine (IFN-γ secretion) ([1]; Compound 1 DP 200 μg/M s.c., 2.5 million cells/well, activation Compound 1 RS 3.125 μg/ml): 103.9 pg/mL | Final cytokine (IFN-γ secretion) ([1]; Compound 1 DP 200 μg/M s.c., 2.5 million cells/well, activation Compound 1 RS 6.25 μg/ml): 126.1 pg/mL | Final cytokine (IFN-γ secretion) ([1]; Compound 1 DP 200 μg/M s.c., 2.5 million cells/well, activation Compound 1 RS 12.5 μg/ml): 129.0 pg/mL | Final cytokine (IFN-γ secretion) ([1]; Compound 1 DP 200 μg/M s.c., 2.5 million cells/well, activation Compound 1 RS 50 μg/ml): 378.1 pg/mL | Final cytokine (IFN-γ secretion) ([1]; Compound 1 DP 200 μg/M s.c., 2.5 million cells/well, activation Compound 1 RS 100 μg/ml): 524.1 pg/mL | Final cytokine (IFN-γ secretion) ([1]; Compound 1 DP 200 μg/M s.c., 2.5 million cells/well, activation Compound 1 RS 25 μ/ml): 240.3 pg/mL | Final cytokine (IFN-γ secretion) ([1]; Compound 1 DP 200 μg/M s.c., 2.5 million cells/well, activation Con A): BQL | Final cytokine (IFN-γ secretion) ([1]; Compound 1 DP 200 μg/M s.c., 5 million cells/well, activation Compound 1 RS 3.125 μg/ml): 204.4 pg/mL | Final cytokine (IFN-γ secretion) ([1]; Compound 1 DP 200 μg/M s.c., 5 million cells/well, activation Compound 1 RS 6.25 μg/ml): 244.1 pg/mL | Final cytokine (IFN-γ secretion) ([1]; Compound 1 DP 200 μg/M s.c., 5 million cells/well, activation Compound 1 RS 12.5 μg/ml): 466.1 pg/mL | Final cytokine (IFN-γ secretion) ([1]; Compound 1 DP 200 μg/M s.c., 5 million cells/well, activation Compound 1 RS 50 μg/ml): 922.5 pg/mL | Final cytokine (IFN-γ secretion) ([1]; Compound 1 DP 200 μg/M s.c., 5 million cells/well, activation Compound 1 RS 100 μg/ml): 1006.2 pg/mL | Final cytokine (IFN-γ secretion) ([1]; Compound 1 DP 200 μg/M s.c., 5 million cells/well, activation Compound 1 RS 25 μ/ml): 660.5 pg/mL | Final cytokine (IFN-γ secretion) ([1]; Compound 1 DP 200 μg/M s.c., 5 million cells/well, activation Con A): 7722.8 pg/mL | inhibition of IFN-γ secretion ([1]; all the doses used for treatment (25-200 μg/mouse)): Significant inhibition | proliferative response of PBL of SLE patients to the human anti-DNA 16/6Id mAB [2]: inhibit the proliferative response | ICD (Mean ± SEM) ([3]; 50 μg/mouse in Captisol ®, intensity scale 0 = none to 3 = severe/extremely intense): 1.90 ± 0.23 | intensity of immune complex deposits in kidney sections ([3]; 25 or 50 μg/mouse dissolved in Captisol®, FIG. 6): much lower than that observed in the control group | SLE related findings: immune complex deposits (ICD) in the kidney, proteinuria and leukopenia ([4]; Balb/c and (NZBxNZW)F1 mice): significantly reduced | disease manifestations of mice afflicted with spontaneous or experimental SLE ([4]; mouse, in vivo): ameliorate disease manifestations | safety and tolerability, Phase Ib (SLE subjects [5]): safe and well tolerated | QTc change from baseline (SLE subjects [6]; [8]): ≤ 60 ms | serious adverse event (SAE) or AE classified as severe (SLE subjects [6]; [8]): No serious adverse event (SAE) or AE classified as severe occurred | vital signs parameters (systolic and diastolic blood pressure, pulse, oxygen saturation) (SLE subjects [6]; [8]): No clinically significant effect | categorical ECG measurements and digitized ECG parameters (SLE subjects [6]; [9]): No differences of clinical significance | incidence of AEs (SLE subjects [6]; [9]): no prominent difference | safety and tolerability, Phase Ia (SLE subjects [6]; single subcutaneous dose of 0.5, 1 or 2.5 mg in 120 mg Captisol®): safe and well tolerated | solubility ([7]; only above pH 9.2 and below pH 3.0, buffers and pH adjustment agents, read-out: solubility levels): ≥ 2000 µg/mL | solubility ([7]; water (aqueous solution), acetate salt, read-out: aqueous solubility of the peptide): < 500 µg/mL
